The text below walks through data of ChEMBL document CHEMBL5705888, “Substrate specificity and inhibitors of LRRK2, a protein kinase mutated in Parkinson's disease” (Biochem J, 2009).

The target of assay [1] is Casein kinase 2 (Homo sapiens) (UniProt P67870+P68400+P19784+Q8NEV1). Description: Inhibition of CK2 (unknown origin) at 1 uM incubated for 30 mins in presence of [gamma-33P]ATP by multidrop micro reagent based assay relative to control; values are per cent of control.
The target in assay [2] is T1, Serine/threonine-protein kinase Sgk1 (Homo sapiens) (UniProt O00141).
T1 sequence (whole entry): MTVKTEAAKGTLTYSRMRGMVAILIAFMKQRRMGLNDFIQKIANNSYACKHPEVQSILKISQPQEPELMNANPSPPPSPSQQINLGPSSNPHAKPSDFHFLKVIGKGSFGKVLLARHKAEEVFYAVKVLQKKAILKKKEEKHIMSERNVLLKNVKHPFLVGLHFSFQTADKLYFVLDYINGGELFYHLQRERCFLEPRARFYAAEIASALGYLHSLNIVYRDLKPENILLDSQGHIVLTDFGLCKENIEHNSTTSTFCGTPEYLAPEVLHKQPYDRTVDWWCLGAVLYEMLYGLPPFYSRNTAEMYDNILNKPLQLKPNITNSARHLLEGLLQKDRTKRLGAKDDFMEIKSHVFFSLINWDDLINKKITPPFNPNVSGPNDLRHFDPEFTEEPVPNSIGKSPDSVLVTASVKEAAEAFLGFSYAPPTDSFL
In words: Inhibition of SGK1 (unknown origin) at 1 uM incubated for 30 mins in presence of [gamma-33P]ATP by multidrop micro reagent based assay relative to control; values are per cent of control.

The target of assay [3] is Receptor tyrosine-protein kinase erbB-4 (Homo sapiens) (UniProt Q15303). Description: Inhibition of HER4 (unknown origin) at 1 uM incubated for 30 mins in presence of [gamma-33P]ATP by multidrop micro reagent based assay relative to control; values are per cent of control.
The target of assay [4] is T2, Serine/threonine-protein kinase Nek2 (Homo sapiens) (UniProt P51955).
T2 sequence (whole entry): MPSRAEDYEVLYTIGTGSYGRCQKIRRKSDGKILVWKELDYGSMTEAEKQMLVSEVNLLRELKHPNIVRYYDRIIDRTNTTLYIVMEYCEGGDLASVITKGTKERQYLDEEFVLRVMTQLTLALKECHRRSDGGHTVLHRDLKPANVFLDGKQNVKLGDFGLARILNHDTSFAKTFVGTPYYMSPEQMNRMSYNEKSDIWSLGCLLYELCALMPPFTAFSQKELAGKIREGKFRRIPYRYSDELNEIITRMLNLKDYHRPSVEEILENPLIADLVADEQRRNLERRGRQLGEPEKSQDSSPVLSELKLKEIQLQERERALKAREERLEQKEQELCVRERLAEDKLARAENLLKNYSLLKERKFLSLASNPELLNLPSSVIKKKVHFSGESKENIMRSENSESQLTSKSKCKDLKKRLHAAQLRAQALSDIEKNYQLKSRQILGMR
In words: Inhibition of NEK2a (unknown origin) at 1 uM incubated for 30 mins in presence of [gamma-33P]ATP by multidrop micro reagent based assay relative to control; values are per cent of control.

Assay [5] addresses AMP-activated protein kinase, AMPK (Homo sapiens) (UniProt P54646+O43741+P54619+Q9UGJ0+Q9Y478+Q13131+Q9UGI9). In words: Inhibition of AMPK (unknown origin) at 10 uM incubated for 30 mins in presence of [gamma-33P]ATP by multidrop micro reagent based assay relative to control. It counts as protein-complex assay.
In assay [6] the target is T1, Serine/threonine-protein kinase Sgk1 (Homo sapiens). Description: Residual activity of SGK1 (unknown origin) at 10 uM incubated for 30 mins in presence of [gamma-33P]ATP by multidrop micro reagent based assay relative to control.
For another assay, the species on record is Homo sapiens. In words: Inhibition of PHK (unknown origin) at 10 uM incubated for 30 mins in presence of [gamma-33P]ATP by multidrop micro reagent based assay relative to control; values are per cent of control.
For assay [7], the target named is Mitogen-activated protein kinase 8 (Homo sapiens) (UniProt P45983). In words: Inhibition of JNK1 (unknown origin) at 10 uM incubated for 30 mins in presence of [gamma-33P]ATP by multidrop micro reagent based assay relative to control; values are per cent of control.
Assay [8] deals with Serine/threonine-protein kinase PAK 6 (Homo sapiens) (UniProt Q9NQU5). In words: Inhibition of PAK6 (unknown origin) at 10 uM incubated for 30 mins in presence of [gamma-33P]ATP by multidrop micro reagent based assay relative to control; values are per cent of control.
The target in assay [9] is Myosin light chain kinase, smooth muscle (Homo sapiens) (UniProt Q15746). Description: Inhibition of SmMLCK (unknown origin) at 10 uM incubated for 30 mins in presence of [gamma-33P]ATP by multidrop micro reagent based assay relative to control; values are per cent of control.
Assay [10] has as its target Mitogen-activated protein kinase 11 (Homo sapiens) (UniProt Q15759). Description: Inhibition of p38beta MAPK (unknown origin) at 10 uM incubated for 30 mins in presence of [gamma-33P]ATP by multidrop micro reagent based assay relative to control; values are per cent of control.
Assay [11] has as its target T3, NUAK family SNF1-like kinase 1 (Homo sapiens) (UniProt O60285).
T3 sequence (whole entry): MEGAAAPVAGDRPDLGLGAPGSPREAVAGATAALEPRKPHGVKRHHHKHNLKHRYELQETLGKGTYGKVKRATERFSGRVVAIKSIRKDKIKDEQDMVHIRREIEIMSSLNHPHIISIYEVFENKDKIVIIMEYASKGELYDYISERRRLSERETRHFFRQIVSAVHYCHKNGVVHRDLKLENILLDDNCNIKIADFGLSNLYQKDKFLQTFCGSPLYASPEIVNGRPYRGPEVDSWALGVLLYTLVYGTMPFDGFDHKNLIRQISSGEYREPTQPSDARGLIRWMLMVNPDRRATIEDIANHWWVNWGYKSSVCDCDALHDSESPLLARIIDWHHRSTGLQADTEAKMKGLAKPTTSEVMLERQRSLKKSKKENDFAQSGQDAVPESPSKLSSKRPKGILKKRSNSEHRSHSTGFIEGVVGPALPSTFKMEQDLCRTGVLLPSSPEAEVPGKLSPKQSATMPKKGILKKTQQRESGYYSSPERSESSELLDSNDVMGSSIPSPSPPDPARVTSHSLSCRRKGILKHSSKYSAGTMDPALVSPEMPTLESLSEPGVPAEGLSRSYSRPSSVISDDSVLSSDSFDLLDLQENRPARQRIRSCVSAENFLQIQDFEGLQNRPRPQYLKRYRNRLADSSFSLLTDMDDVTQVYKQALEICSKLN
Description: Activity of NUAK1 (unknown origin) at 1 uM incubated for 30 mins in presence of [gamma-33P]ATP by multidrop micro reagent based assay relative to control.

Chain of Receptor tyrosine-protein kinase erbB-4 (Homo sapiens) (Q15303 whole entry): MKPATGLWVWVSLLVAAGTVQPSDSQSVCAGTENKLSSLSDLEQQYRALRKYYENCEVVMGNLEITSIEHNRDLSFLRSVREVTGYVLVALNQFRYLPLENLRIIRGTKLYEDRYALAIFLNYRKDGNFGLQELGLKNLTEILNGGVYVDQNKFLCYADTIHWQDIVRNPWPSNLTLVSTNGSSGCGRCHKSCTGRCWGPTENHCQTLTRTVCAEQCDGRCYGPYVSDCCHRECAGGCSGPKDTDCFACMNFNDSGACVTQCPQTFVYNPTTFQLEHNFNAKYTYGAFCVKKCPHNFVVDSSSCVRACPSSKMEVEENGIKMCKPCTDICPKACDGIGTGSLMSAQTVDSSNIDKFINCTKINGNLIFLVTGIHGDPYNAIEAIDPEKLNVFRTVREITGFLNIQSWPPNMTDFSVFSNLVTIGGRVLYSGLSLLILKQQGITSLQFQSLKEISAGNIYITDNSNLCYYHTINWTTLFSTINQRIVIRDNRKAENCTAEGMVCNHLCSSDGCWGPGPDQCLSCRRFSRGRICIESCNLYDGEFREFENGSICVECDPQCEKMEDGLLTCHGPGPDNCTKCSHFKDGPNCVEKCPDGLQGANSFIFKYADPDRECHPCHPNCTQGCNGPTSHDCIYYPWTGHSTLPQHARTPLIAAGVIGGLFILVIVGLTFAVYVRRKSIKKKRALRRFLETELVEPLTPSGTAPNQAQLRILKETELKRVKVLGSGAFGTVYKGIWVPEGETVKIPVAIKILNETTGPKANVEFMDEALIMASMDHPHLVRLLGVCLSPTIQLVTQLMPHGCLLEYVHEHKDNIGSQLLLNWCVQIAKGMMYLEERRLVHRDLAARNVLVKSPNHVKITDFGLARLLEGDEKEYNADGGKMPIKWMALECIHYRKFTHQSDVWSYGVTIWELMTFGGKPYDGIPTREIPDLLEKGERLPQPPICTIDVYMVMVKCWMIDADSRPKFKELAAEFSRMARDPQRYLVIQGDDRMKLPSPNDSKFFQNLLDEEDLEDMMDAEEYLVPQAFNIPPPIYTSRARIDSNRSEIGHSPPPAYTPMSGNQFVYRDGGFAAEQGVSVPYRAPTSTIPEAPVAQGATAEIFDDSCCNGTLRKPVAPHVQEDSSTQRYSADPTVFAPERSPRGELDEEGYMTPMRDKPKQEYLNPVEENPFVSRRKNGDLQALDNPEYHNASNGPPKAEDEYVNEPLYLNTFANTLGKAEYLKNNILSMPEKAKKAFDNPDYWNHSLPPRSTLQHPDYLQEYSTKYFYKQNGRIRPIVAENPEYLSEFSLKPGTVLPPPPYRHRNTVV
Chain of Myosin light chain kinase, smooth muscle (Homo sapiens) (Q15746 whole entry): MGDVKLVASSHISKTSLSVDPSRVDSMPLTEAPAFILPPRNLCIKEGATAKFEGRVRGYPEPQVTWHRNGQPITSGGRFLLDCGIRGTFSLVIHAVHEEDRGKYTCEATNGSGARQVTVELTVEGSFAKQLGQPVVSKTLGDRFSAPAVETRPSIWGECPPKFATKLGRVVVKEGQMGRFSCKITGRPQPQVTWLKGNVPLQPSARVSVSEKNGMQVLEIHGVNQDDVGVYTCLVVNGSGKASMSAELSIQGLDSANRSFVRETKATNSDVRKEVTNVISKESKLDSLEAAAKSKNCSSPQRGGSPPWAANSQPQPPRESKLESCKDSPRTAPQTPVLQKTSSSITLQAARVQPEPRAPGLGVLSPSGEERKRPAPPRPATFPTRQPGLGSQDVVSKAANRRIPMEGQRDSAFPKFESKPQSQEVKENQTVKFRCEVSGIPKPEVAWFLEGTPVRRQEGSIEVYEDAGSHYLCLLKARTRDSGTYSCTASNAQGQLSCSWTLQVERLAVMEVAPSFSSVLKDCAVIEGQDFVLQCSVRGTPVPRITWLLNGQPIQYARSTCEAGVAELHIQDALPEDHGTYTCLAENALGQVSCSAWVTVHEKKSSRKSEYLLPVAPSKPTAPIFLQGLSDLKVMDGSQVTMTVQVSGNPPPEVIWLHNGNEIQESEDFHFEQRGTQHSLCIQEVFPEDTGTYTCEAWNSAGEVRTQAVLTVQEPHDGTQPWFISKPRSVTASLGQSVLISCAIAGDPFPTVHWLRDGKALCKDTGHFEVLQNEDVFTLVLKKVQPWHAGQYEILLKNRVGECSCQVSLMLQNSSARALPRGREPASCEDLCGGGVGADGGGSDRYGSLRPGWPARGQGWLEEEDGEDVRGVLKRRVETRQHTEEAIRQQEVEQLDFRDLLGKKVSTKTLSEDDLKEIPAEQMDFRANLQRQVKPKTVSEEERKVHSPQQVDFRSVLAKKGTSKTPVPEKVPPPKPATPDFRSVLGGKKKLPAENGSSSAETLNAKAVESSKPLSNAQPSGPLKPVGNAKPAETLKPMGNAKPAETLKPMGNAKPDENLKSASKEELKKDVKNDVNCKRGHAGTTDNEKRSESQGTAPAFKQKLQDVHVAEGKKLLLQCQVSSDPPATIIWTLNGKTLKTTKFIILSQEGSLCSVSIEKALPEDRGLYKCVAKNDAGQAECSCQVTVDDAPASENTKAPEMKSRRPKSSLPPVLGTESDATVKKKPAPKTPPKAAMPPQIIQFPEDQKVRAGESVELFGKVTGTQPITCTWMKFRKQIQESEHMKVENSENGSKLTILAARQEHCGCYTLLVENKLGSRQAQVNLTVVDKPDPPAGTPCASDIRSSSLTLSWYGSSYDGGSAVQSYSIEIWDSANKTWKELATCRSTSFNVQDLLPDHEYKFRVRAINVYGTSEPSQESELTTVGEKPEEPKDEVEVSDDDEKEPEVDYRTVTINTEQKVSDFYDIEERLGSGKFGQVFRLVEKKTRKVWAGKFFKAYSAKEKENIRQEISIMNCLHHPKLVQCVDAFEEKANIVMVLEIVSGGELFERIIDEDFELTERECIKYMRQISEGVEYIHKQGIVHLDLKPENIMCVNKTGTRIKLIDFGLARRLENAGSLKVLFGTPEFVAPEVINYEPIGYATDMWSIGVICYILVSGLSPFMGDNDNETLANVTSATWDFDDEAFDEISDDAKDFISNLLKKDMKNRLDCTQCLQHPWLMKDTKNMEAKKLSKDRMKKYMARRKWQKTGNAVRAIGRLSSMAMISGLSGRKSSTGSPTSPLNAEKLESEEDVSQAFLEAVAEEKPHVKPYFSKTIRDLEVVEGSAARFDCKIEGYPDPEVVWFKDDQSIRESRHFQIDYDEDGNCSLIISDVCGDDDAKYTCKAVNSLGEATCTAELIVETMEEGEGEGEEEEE
Chain of Mitogen-activated protein kinase 11 (Homo sapiens) (Q15759 whole entry): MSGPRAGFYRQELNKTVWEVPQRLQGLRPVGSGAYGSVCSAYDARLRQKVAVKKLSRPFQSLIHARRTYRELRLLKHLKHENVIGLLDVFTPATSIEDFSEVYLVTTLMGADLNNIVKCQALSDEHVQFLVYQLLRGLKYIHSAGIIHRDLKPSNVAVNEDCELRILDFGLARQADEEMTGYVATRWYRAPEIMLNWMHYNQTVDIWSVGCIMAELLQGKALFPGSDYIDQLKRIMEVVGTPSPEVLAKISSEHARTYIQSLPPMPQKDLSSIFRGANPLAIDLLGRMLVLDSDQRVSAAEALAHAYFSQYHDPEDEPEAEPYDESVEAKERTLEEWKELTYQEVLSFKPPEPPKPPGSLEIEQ
Chain of Mitogen-activated protein kinase 8 (Homo sapiens) (P45983 whole entry): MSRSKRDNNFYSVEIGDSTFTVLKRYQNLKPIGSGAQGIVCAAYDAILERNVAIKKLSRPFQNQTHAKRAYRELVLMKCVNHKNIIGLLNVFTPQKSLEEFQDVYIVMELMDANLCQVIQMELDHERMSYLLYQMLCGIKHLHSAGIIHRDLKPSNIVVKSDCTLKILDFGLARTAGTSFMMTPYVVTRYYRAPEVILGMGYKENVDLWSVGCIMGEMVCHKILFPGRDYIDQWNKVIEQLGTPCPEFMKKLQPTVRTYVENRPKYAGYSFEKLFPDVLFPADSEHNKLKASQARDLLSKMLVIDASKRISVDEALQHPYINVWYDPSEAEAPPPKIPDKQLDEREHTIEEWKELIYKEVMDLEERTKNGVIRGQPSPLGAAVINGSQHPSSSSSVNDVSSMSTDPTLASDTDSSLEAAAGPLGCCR
Chain of Serine/threonine-protein kinase PAK 6 (Homo sapiens) (Q9NQU5 whole entry, looked up): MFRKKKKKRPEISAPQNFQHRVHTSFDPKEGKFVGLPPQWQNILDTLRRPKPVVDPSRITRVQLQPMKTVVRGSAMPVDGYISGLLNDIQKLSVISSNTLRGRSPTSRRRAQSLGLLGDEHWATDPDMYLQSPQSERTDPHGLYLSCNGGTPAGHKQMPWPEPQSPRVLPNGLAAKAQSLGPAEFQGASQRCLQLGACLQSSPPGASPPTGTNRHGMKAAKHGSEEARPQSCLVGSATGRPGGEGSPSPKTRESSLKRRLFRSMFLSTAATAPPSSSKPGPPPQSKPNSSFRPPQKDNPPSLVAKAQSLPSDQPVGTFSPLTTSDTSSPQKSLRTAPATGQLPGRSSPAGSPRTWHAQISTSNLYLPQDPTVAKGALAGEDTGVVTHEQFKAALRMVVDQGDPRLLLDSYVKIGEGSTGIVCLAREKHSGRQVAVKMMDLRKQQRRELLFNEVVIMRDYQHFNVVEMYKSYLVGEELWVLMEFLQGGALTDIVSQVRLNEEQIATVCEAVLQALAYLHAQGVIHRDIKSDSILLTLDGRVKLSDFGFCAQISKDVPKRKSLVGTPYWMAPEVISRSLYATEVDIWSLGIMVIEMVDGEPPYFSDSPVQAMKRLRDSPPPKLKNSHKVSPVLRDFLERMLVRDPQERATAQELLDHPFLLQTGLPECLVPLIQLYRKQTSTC

On to `CC1=C(C(=O)Nc2cc3cn[nH]c3cc2F)C(c2ccc(C(F)(F)F)cc2)CC(=O)N1` (centres undefined), for which the residual activity came out at 82% in [1], 131% in assay [2], 50% in assay [3] and 106% in assay [4].

Regarding `Cc1cncc2cccc(S(=O)(=O)N3CCCNC[C@@H]3C)c12`, the residual activity turned out to be 84% in assay [1], 107% in assay [3] and 99% in assay [4].

As for `C[C@@H](N)[C@H]1CC[C@H](C(=O)Nc2ccncc2)CC1`, the inhibition in [5] worked out at 77%. For the same molecule, the residual activity in [6] turned out to be 50%; in the assay listed under Homo sapiens, 79%; in [7], 106%; in [8] it was 96%; in [9], 70%; in [10] it was 101%.

As to `O=S(=O)(c1cccc2cnccc12)N1CCCNCC1` [FASUDIL], in [5], the inhibition amounted to 60%. Moreover, the residual activity in [6] came out at 69%; in the assay listed under Homo sapiens it was 46%; in assay [7] it was 115%; in assay [8], 110%; in assay [9], 66%; in assay [10] it was 111%.

Take `CCn1c(-c2nonc2N)nc2cnc(Oc3cccc(NC(=O)c4ccc(OCCN5CCOCC5)cc4)c3)cc21` [GSK-269962A]: the values for the residual activity in assay [11] and in assay [2] were 39% and 24%, respectively.

Turning to `CCN(CC)CCNC(=O)c1c(C)[nH]c(/C=C2\C(=O)Nc3ccc(F)cc32)c1C`, the residual activity in [11] is 15%.

Broadly, the inhibition is the share of the control response that was lost under treatment.
